Laboratory results published in US20090215853A1, “Flavopereirine and alstonine combinations in the treatment and prevention of prostate cancer” (Natural Source International, priority 2004, published 2009).

How the values were obtained:
[1] = test system: LNCaP cells; assay: Induction of apoptosis in LNCaP cells (PARP cleavage, Caspase-3 activity); assay type: cell-based, human; conditions: 24 hours (FIG. 2)
[2] = test system: normal DNA; conditions: Oncotest; cited from earlier work

Structure (SMILES)	apoptosis as determined by cleavage of PARP and induction of Caspase-3 [1]	effect on normal DNA [2]
COC(=O)C1=CO[C@@H](C)[C@@H]2Cn3ccc4c5ccccc5nc-4c3C[C@H]12 [alstonine]	relatively minor effect	no effect on normal DNA
CCc1ccc2c3[nH]c4ccccc4c3cc[n+]2c1 [flavopereirine]	induction of apoptosis	no effect on normal DNA
